The text below walks through data of article PMC4539082 (Drug Design, Development and Therapy, 2015).

For one data set, the system named is p3TP Lux mink lung cells. Put plainly: TGF-β-dependent luciferase assay in mink lung cells. Type of data set: cell-based. The settings on record: read-out: p3TP lux, IC50; Mean values ± SEM for a minimum of three determinations (n); data on file.
A further data set has as its system NIH3T3. In words: Growth inhibition in mouse fibroblasts. The data set is classed as cell-based. The settings on record: read-out: NIH3T3, IC50; Mean values ± SEM for a minimum of three determinations (n); data on file.
The target in the next data set is p38MAPK (Homo sapiens, UniProt Q16539). Put plainly: p38MAPK inhibition, single-point determination. The conditions noted are these: read-out: p38MAPK, IC50, data on file. Type of data set: biochemical.
Chain of p38MAPK (Q16539 whole entry): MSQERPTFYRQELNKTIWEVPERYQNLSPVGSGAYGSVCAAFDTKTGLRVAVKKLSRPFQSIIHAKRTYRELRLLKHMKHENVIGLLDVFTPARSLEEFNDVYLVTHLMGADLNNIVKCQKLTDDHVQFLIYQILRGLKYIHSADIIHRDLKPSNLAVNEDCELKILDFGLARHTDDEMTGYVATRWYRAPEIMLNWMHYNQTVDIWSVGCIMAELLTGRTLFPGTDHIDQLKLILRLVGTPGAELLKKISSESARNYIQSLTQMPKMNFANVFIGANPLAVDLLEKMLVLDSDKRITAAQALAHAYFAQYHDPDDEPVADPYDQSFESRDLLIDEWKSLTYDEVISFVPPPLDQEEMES
The subject of data set [1] is cell lines that had no T790M mutation. The conditions noted are these: cell lines without T790M mutation; cited from earlier work.
The nature of a further data set: Half-life in rat. Type of data set: in vivo.
A short description of the next data set: Half-life in dog. Type of data set: in vivo.
In another data set the test system is NSCLC cell lines. The conditions noted are these: cited from earlier work.
The subject of another data set is MDAPCa2b and PC-3. The settings on record: cited from earlier work.
In another data set the test system is lung fibrosis. The settings on record: administration before, during, and after radiation treatment; cited from earlier work.
The conditions of data set [2]: one patient with malignant melanoma; doses up to 15 mg/kg; cited from earlier work.
The conditions of data set [3]: 13 patients, 3 mg/kg every 21 days; cited from earlier work.
For data set [4], the system named is pSMAD2 in glioblastoma cell lines. The settings on record: lomustine by itself; cited from earlier work.
A further data set addresses T1, TGF-βR-I kinase domain (Homo sapiens, UniProt P36897, T204D).
T1 sequence (P36897 148-503 T204D limits assumed): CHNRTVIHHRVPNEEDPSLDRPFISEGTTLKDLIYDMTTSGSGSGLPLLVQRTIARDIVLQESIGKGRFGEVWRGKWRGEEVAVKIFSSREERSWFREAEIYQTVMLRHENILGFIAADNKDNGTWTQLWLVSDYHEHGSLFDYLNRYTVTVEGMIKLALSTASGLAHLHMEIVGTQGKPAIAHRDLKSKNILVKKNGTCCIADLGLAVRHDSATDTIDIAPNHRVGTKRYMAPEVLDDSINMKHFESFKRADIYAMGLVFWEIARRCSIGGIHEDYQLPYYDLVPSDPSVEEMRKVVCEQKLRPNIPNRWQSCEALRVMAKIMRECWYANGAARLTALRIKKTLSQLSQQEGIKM
In words: Ki of Eli Lilly TGF-β SMIs. The data set is classed as biochemical. The settings on record: data on file, Eli Lilly and Company.

Another data set can be described thus: Half-life in mice. The conditions noted are these: mouse, in vivo.
For data set [5] the following is noted: patients; cited from earlier work.
A further data set relates to PDX of melanoma. The settings on record: cited from earlier work.

On to `c1ccc(-c2[nH]ncc2-c2ccnc3ccccc23)nc1` [LY364947], for which the IC50 in the data set on p3TP Lux mink lung cells was found to be 47 ± 16 nM; with NIH3T3 it was 89 ± 10 nM; at p38MAPK, 740 nM. For the same compound, the EGFR resistance result in data set [1] was “able to overcome the EGFR resistance”.
Consider `c1ccc(-c2nn3c(c2-c2ccnc4cc(OCCN5CCOCC5)ccc24)CCC3)nc1` [LY2109761], for which the IC50 with p3TP Lux mink lung cells stood at 180 ± 93 nM; with NIH3T3, 210 ± 170 nM. For the same compound, the Half-life mean in “Half-life in rat” (Rat, data on file) was 108 min; in the data set “Half-life in dog” (Dog, data on file), 60 to 120 min. Further, the metastatic spread entry in the data set on NSCLC cell lines was “reduced metastatic spread”. Further, the “antitumor activity, bone metastasis” value with MDAPCa2b and PC-3 was “inhibiting bone metastasis”. Further, the lung fibrosis entry in the data set with lung fibrosis is given as “inhibited lung fibrosis”.
Consider “fresolimumab: pan-TGF-β ligand monoclonal antibody”, for which, in data set [2], the “duration of partial response” value was 44.4 weeks. In addition, the radiographic responses entry in [3] is “None of the patients had radiographic responses”.
For the compound `O=NN(CCCl)C(=O)NC1CCCCC1` [lomustine], the pSMAD2 result in data set [4] is given as “reduced pSMAD2”.
On TGF-βR-I kinase domain, `Cc1cccc(-c2nn3c(c2-c2ccc(F)cc2)CCC3)n1` [LY580276] displayed a Ki of 37 nM. Moreover, the IC50 was 96 ± 16 nM with p3TP Lux mink lung cells, 339 ± 349 nM in the data set with NIH3T3 and > 20000 nM at p38MAPK.
Turning to `Cc1cccc(-c2nn3c(c2-c2ccnc4ccc(C(N)=O)cc24)CCC3)n1` [Galunisertib (LY2157299)], the half-life was 31.8 min in “Half-life in rat” (rat, in vivo); 18 min in the data set “Half-life in mice”; 136 min in the data set “Half-life in dog” (dog, in vivo). The “drug-related Grade 3/4 toxicities” value in data set [5] is on record as < 5%. The pSMAD2 result in the data set with PDX of melanoma (PDX of melanoma) is recorded as “inhibited”. Moreover, the growth inhibitory effect result in the data set with PDX of melanoma (standard tumor colony assay, melanoma PDX) is recorded as “no growth inhibitory effect”.

Usually IC50 stands for the concentration that inhibits the measured activity by half. As usually defined, the Ki is a dissociation constant, usually derived from enzyme kinetics or from competition with a known ligand. The low end stands for tighter binding, the high end for weaker binding. By half-life is commonly meant the time in which the quantity being followed falls by half.
